The values that follow come from patent publication US20220396577A1, “NOVEL SUBSTITUTED 1,3-8-TRIAZASPIRO[4,5] DECANE-2,4-DIONE COMPOUNDS AS INDOLEAMINE 2,3-DIOXYGENASE (IDO) AND/OR TRYPTOPHAN 2,3-DIOXYGENASE (TDO) INHIBITORS” (Merck Sharp & Dohme LLC, priority 2019, published 2022).

Holding throughout (format): biochemical
For one assay, the target named is IDO1 (Homo sapiens, UniProt P14902). In words: IDO1 Enzymatic Assay (A). The settings on record: recombinant HIS-tagged IDO1, 40 nM; read-out: IDO enzymatic IC50, nM (A). On the procedure:
Compounds to be tested were serially diluted in ten 3-fold steps in DMSO starting from 10 mM DMSO stocks. Compound dilutions or DMSO alone were then dispensed from the dilution plate into a Greiner black 384-well assay plate (catalog #781086) using an Echo 555 acoustic liquid handler (Labcyte). HIS-tagged IDO1 protein (Genbank #: NM_002164) was recombinantly expressed in Escherichia coli using ZYP5052 auto induction media supplemented with 500 μM delta aminolevulinic acid for 48 h at 16° C. IDO1 protein was purified using Ni^2+-affinity resin and size exclusion chromatography. Purified protein was then diluted in assay buffer (50 mM Tris pH 7.0, 1% glycerol, 20 μM methylene blue, 0.05% Tween-20, 20 mM sodium ascorbate, 100 units/mL catalase) to obtain a final IDO1 concentration of 40 nM. […] were dispensed to wells of the assay plate using a BioRAPTR liquid dispenser (Beckman Coulter). Assay plates containing compound and IDO1 enzyme were incubated at RT for 30 min. Afterwards, 10 μL of 400 μM tryptophan in assay buffer were added to each well of the assay plate using a BioRAPTR liquid dispenser. […] The resulting fluoresence was measured in an Envision plate reader (Perkin Elmer) with a 400/25 nm excitation filter and an 510/20 nm emission filter. […] Potencies were calculated by linear least squares fit to the four parameter logistic IC50 equation.

Another assay has as its target RPS6KB1 (Homo sapiens, UniProt P23443). In words: Off-target kinase panel, ZLYTE: RPS6KB1. Conditions: read-out: Estimated IC50 (uM) RPS6KB1. The text has this:
(§1) The activity data was obtained in a panel of 265 and 264 for compounds 1-1 and CC-1, respectively, using the ZLYTE and ADAPTA assay methods indicated in the table below.
(§2) The ZLYTE biochemical assay employs a fluorescence-based, coupled-enzyme format and is based on the differential sensitivity of phosphorylated and non-phosphorylated peptides to proteolytic cleavage. The peptide substrate is labeled with two fluorophores—one at each end—that make up a Fluorescence Resonance Energy Transfer (FRET) pair.
(§3) In the primary reaction, the kinase transfers the gamma-phosphate of ATP to a single tyrosine, serine or threonine residue in a synthetic FRET-peptide. In the secondary reaction, a site-specific protease recognizes and cleaves non-phosphorylated FRET-peptides. Phosphorylation of FRET-peptides suppresses cleavage by the Development Reagent. […] A ratiometric method, which calculates the ratio (the Emission Ratio) of donor emission to acceptor emission after excitation of the donor fluorophore at 400 nm, is used to quantitate reaction progress, as shown in the equation below. […]
(§4) Both cleaved and uncleaved FRET-peptides contribute to the fluorescence signals and therefore to the Emission Ratio. The extent of phosphorylation of the FRET-peptide can be calculated from the Emission Ratio. […]
(§5) 10. Read on fluorescence plate reader and analyze the data.

The target in the next assay is T1, FLT3(D835Y) (Homo sapiens, UniProt P36888, D835Y).
T1 sequence (P36888 27-993 D835Y): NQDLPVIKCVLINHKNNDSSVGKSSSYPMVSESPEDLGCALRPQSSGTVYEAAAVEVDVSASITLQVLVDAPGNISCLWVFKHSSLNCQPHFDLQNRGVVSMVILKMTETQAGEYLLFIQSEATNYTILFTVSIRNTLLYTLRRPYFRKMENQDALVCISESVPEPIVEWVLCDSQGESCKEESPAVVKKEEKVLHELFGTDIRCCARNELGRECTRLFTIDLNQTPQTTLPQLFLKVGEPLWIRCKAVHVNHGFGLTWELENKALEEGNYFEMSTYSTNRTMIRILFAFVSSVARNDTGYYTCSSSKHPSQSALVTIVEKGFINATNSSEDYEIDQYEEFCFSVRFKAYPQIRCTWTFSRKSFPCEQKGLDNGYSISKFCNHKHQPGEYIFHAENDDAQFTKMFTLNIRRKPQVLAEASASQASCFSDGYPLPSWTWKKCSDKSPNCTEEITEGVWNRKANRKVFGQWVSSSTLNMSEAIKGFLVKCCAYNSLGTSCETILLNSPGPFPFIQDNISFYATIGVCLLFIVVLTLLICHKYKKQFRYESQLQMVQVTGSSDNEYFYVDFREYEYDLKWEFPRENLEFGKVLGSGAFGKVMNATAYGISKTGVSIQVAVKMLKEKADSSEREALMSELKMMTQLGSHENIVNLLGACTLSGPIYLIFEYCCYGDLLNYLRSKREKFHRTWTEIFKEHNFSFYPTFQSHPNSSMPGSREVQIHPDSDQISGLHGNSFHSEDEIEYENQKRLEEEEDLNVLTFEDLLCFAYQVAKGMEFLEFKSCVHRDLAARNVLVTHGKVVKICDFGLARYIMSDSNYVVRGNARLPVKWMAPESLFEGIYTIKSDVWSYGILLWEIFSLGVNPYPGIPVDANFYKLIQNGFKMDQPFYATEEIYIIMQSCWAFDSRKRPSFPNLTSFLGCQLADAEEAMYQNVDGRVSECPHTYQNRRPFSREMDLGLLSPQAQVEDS
Nature of the assay: Off-target kinase panel, ZLYTE: FLT3(D835Y). Conditions: read-out: Estimated IC50 (uM) FLT3(D835Y).
Description: as §1, §2, §3, §4, §5

What is called IC50 is the concentration needed to halve the response being measured.

IDO1, sequence (P14902 whole entry): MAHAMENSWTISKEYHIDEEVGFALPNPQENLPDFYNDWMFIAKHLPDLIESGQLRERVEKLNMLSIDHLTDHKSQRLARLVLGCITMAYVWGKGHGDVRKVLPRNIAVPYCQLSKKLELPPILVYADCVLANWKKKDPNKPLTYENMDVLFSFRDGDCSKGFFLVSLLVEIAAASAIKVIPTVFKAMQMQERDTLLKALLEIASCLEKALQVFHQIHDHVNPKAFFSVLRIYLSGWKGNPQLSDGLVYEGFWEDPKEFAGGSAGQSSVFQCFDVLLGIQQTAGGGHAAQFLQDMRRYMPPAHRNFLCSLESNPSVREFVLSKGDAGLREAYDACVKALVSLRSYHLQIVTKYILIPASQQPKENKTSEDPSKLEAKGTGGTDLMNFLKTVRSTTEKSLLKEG
RPS6KB1, sequence (P23443 whole entry): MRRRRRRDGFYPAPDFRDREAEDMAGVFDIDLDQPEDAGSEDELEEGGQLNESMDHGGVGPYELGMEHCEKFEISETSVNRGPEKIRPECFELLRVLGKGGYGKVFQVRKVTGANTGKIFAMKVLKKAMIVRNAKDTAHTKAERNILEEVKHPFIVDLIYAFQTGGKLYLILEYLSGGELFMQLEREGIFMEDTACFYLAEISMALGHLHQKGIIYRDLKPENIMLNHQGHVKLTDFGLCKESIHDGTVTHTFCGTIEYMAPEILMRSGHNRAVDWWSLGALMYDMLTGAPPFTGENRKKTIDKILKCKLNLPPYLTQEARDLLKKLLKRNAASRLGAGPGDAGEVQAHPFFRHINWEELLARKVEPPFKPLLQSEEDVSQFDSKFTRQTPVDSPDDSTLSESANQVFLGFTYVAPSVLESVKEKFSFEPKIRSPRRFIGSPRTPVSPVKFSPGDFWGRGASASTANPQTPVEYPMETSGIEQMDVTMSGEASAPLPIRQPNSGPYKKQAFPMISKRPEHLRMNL

In the case of `C[C@@H]1CN(c2cc(Br)cc3[nH]ncc23)CC[C@]12NC(=O)NC2=O` (single isomer, unassigned) [Compound 1-1], the IC50 at IDO1 is 129 nM; at RPS6KB1, 1.9 µM.

For the molecule `O=C1NC(=O)C2(CCN(c3cc(Cl)cc4[nH]ncc34)CC2)N1` [CC-1], the figures for the IC50 on FLT3(D835Y), at IDO1 and at RPS6KB1 were 1.5 µM, 113 nM and 1.7 µM, respectively.
